Measurements taken from US9358247B2, “Methods and compositions for promoting activity of anti-cancer therapies” (Oncology Research International Limited, priority 2006, dated 2016).

Columns and labels:
[1] = tested on: HT29 human cells; test: In vivo tumour volume, HT29 cells subcutaneously introduced into mice, 5-fluorouracil and deltonin; parameters: species or system Balb/c nude female mice
Source text: 5-Fluorouracil (5FU) is the principal chemotherapeutic drug used in treating colon cancer; it is most commonly co-administered with other chemotherapeutic agents. This study compared the co-administration of 5-fluoruracil and deltonin, with administration of mono-administration of both 5-fluorourcil and deltonin.
72 female Balb/c nude female mice were microchipped, weighed and randomised based on body weight into 8 groups with 9 mice per group. […]
HT29 human […] carcinoma cells were cultured in RPMI1640 cell culture medium, which was supplemented with 10% FBS and penicillin-streptomycin (50 IU/mL final concentration). The cells were harvested by trypsinisation, washed twice in HBSS and counted. The cells were then resuspended in HBSS and adjusted to a final volume containing 2×10^7 cells/mL. For inoculation, the needle was introduced through the skin into the subcutaneous space just below the right shoulder, where 100 μL of cells (2×10^6) were discharged.
When the tumour volumes had reached an average of greater than 200 mm^3, treatment was started (Day 0). Tumour volumes were measured 3-times weekly, and determined according to the formula: V(mm^3)=length×diameter^2×π/6
Treatment was continued for 17 days. The mean tumour volumes for each dosage regime are given in Table 24 and are presented graphically in FIG. 1: […]

[2] = tested on: PC3, DU145, A549 and HT29 cell lines; test: Cancer cell growth inhibition, IC50 values used in assay for four cell lines (Example 5); type: cell-based, human; settings: Homo sapiens, value used to make up 50:50 IC50 mixtures
Experimental: Tumour cells were seeded in duplicate in 96-well plates at 2-5,000 per microtitre well containing RPMI culture medium/10% foetal calf serum. The cells were allowed to grow until the controls were nearly confluent after 5-6 days. Plates were then washed with PBS, fixed in ethanol and stained with 50 μL/well of SRB solution (sulforhodamine, 0.4% in 1% acetic acid), followed by washing with 1% acetic acid and solubilisation in Tris. The absorbance was read at 564 nm using an ELISA reader.
The IC50, or concentration required to inhibit cell growth by 50%, was determined from the percentage inhibition versus concentration data using the probit calculation methods of Finney (Finney D J (1971). Probit Analysis. 3rd Edition. Cambridge University Press).
The cell seeding and ELISA plate methodology of Example 2 were used for determining inhibition of four cancer cell lines. IC50 values were determined for the steroid saponins dioscin, deltonin and prosapogenin A, and their mixtures with cisplatin, docetaxel, doxorubicin and vincristine, using PC3, DU145, A549 and HT29 cell lines.

[3] = tested on: LNCap cell line; test: Cancer cell growth inhibition, SRB dye assay (single agents and 50:50 IC50 mixtures); type: cell-based, human
Experimental: (§1) Cancer cells were seeded the day before application of drug in triplicate or quadruplicate in 96-well plates, allowed to grow in the presence of drug for 6 days before cell growth relative to untreated control wells was determined with a dye assay. Cells were seeded in triplicate or quadruplicate at 3-4,000 per microtitre well in 90 μl of RPMI culture medium/10% foetal calf serum/penicillin, streptomycin mix, treated with 10 μl of drug (prepared in a dilution plate at 10× concentration required), and allowed to grow until the controls were nearly confluent (6 days). SRB: Plates were washed with PBS, fixed with methylated spirits, washed with tap water and stained with 50 μL/well of SRB solution (sulforhodamine, 0.4% in 1% acetic acid), followed by washing with tap water and 1% acetic acid, solubilisation in Tris and absorbance read at 564 nm in an ELISA reader. Data was collected using ELISA plate reader software—SOFTmax PRO3.1.2, then imported into EXCEL. The mean and SD of replicates were calculated as a % of control, after subtraction of the blank value (wells with no cells). A graph was plotted of % control vs dose of agent and IC50 (half maximal inhibitory concentration) values determined. […] The cells were allowed to grow until the controls were nearly confluent after 5-6 days. Plates were then washed with PBS, fixed in ethanol and stained with 50 μL/well of SRB solution (sulforhodamine, 0.4% in 1% acetic acid), followed by washing with 1% acetic acid and solubilisation in Tris. The absorbance was read at 564 nm using an ELISA reader. […] Cambridge University Press). […] The inhibitory data from each mixture was used to determine an IC50 of IC50 value, where the concentrations used were the Multiplying Factor values. In order to determine the actual IC50 contribution of each component in the two-component mixture, the IC50 of IC50 value was multiplied by the IC50 of the individual component. This can then be used to determine the reduction in IC50 contribution (ie, reduction in dose) of the chemotherapeutic agent due to the presence of the steroid saponin in the mixture. A simpler way of determining the reduction in dose is to use the following simple formula: […]

[4] = tested on: MCF7 cell line; test: as above; type: cell-based, human
Experimental: as §1

[5] = 50:50 IC50 mixture vs vincristine alone, Example 3
[6] = Homo sapiens, 144 h, Example 3, value used to make up 50:50 IC50 mixtures, read-out: IC50 values used in assay

## C[C@@H]1CC[C@@]2(OC1)O[C@H]1C[C@H]3[C@@H]4CC=C5C[C@@H](O[C@@H]6O[C@H](CO)[C@@H](O[C@@H]7O[C@H](CO)[C@@H](O)[C@H](O)[C@H]7O)[C@H](O)[C@H]6O[C@@H]6O[C@@H](C)[C@H](O)[C@@H](O)[C@H]6O)CC[C@]5(C)[C@H]4CC[C@]3(C)[C@H]1[C@@H]2C [Deltonin, diosgenin Rha2, [Glc4], Glc]
[1]; Deltonin 1.65 mg/kg daily, Day 0
  Mean tumour volume: 236 mm^3
[1]; Deltonin 1.65 mg/kg daily, Day 2
  Mean tumour volume: 260 mm^3
[1]; Deltonin 1.65 mg/kg daily, Day 4
  Mean tumour volume: 299 mm^3
[1]; Deltonin 1.65 mg/kg daily, Day 7
  Mean tumour volume: 294 mm^3
[1]; Deltonin 1.65 mg/kg daily, Day 9
  Mean tumour volume: 350 mm^3
[1]; Deltonin 1.65 mg/kg daily, Day 11
  Mean tumour volume: 462 mm^3
[1]; Deltonin 1.65 mg/kg daily, Day 14
  Mean tumour volume: 594 mm^3
[1]; Deltonin 1.65 mg/kg daily, Day 16
  Mean tumour volume: 644 mm^3
[1]; Deltonin 1.65 mg/kg daily, Day 18
  Mean tumour volume: 776 mm^3
[1]; Deltonin 3.3 mg/kg daily, Day 0
  Mean tumour volume: 236 mm^3
[1]; Deltonin 3.3 mg/kg daily, Day 2
  Mean tumour volume: 242 mm^3
[1]; Deltonin 3.3 mg/kg daily, Day 4
  Mean tumour volume: 271 mm^3
[1]; Deltonin 3.3 mg/kg daily, Day 7
  Mean tumour volume: 331 mm^3
[1]; Deltonin 3.3 mg/kg daily, Day 9
  Mean tumour volume: 413 mm^3
[1]; Deltonin 3.3 mg/kg daily, Day 11
  Mean tumour volume: 489 mm^3
[1]; Deltonin 3.3 mg/kg daily, Day 14
  Mean tumour volume: 558 mm^3
[1]; Deltonin 3.3 mg/kg daily, Day 16
  Mean tumour volume: 742 mm^3
[1]; Deltonin 3.3 mg/kg daily, Day 18
  Mean tumour volume: 842 mm^3
[1]; Deltonin 6.6 mg/kg daily, Day 0
  Mean tumour volume: 235 mm^3
[1]; Deltonin 6.6 mg/kg daily, Day 2
  Mean tumour volume: 233 mm^3
[1]; Deltonin 6.6 mg/kg daily, Day 4
  Mean tumour volume: 265 mm^3
[1]; Deltonin 6.6 mg/kg daily, Day 7
  Mean tumour volume: 310 mm^3
[1]; Deltonin 6.6 mg/kg daily, Day 9
  Mean tumour volume: 399 mm^3
[1]; Deltonin 6.6 mg/kg daily, Day 11
  Mean tumour volume: 490 mm^3
[1]; Deltonin 6.6 mg/kg daily, Day 14
  Mean tumour volume: 588 mm^3
[1]; Deltonin 6.6 mg/kg daily, Day 16
  Mean tumour volume: 671 mm^3
[1]; Deltonin 6.6 mg/kg daily, Day 18
  Mean tumour volume: 692 mm^3
[2]
  IC50: 1 µM
[3]; [5]
  Vincristine Dose Reduction: consistent reduction in dosage
[3]; [6]
  IC50: 1 µM
[4]; [5]
  Vincristine Dose Reduction: consistent reduction in dosage
[4]; [6]
  IC50: 1 µM
